Patent US20250326744A1, “PIPERAZINE DERIVATIVE OR SALT THEREOF, AND PHARMACEUTICAL COMPOSITION” (priority 2022, published 2025)
Where a name gives a salt, the structure may show the parent alone.

Columns and labels:
S-3769 strain = assay: Combinational effect with antibacterial agent against Pseudomonas aeruginosa (Test Examples 2 and 4): S-3769 strain with AMK or GM at 1/4 MIC, EC99; type: cell-based; conditions: for EC99, combinational effect with AMK, S-3769 strain / EC99, S-3769 strain, AMK: combined with AMK at 1/4 MIC; for EC99, combinational effect with AMK, S-3769 strain / EC99, combinational effect with GM, S-3769 strain: Test Example 4; for EC99, combinational effect with GM, S-3769 strain / EC99, S-3769 strain, GM: combined with GM at 1/4 MIC; for EC99, S-3769 strain, AMK / EC99, S-3769 strain, GM: Table 52, Test Example 2, 16 to 20 hours culture, OD595
How it was run: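 EC99, the lowest test-compound concentration inhibiting growth by ≥99% (OD595), was measured with aminoglycoside AMK or GM held at ¼ MIC. Strain S-3769, a MexY-overexpressing clinical isolate, was cultured in CAMHB at 10^4 to 5 CFU/well for 16–20 h; compound range 0–800 μM.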

mexB (PA) strain = assay: Combinational effect with antibacterial agent against Pseudomonas aeruginosa (Test Examples 2 and 4): mexB (PA) strain with LVFX, TC or AZT at 1/4 MIC, EC99; type: cell-based; conditions: for EC99, combinational effect with AZT, mexB (PA) / EC99, combinational effect with LVFX, mexB (PA) / EC99, combinational effect with TC, mexB (PA): mexB (PA) strain, Test Example 4; for EC99, combinational effect with AZT, mexB (PA) / EC99, mexB (PA), AZT: combined with AZT at 1/4 MIC; for EC99, combinational effect with LVFX, mexB (PA) / EC99, mexB (PA), LVFX: combined with LVFX at 1/4 MIC; for EC99, combinational effect with TC, mexB (PA) / EC99, mexB (PA), TC: combined with TC at 1/4 MIC; for EC99, mexB (PA), AZT / EC99, mexB (PA), LVFX / EC99, mexB (PA), TC: Table 52, Test Example 2, 16 to 20 hours culture, OD595
How it was run: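 EC99 denotes the minimum test-compound concentration (range 0–800 μM) that suppresses ≥99% of growth, measured by OD595, when combined with ¼ MIC levofloxacin (LVFX), tetracycline or aztreonam. The efflux-pump mutant mexB (PA), expressing mainly MexAB-OprM, was inoculated at 10^4–5 CFU/well in CAMHB for 16–20 h.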

Row | Compound | EC99, combinational effect with AMK, S-3769 strain (S-3769 strain) | EC99, combinational effect with GM, S-3769 strain (S-3769 strain) | EC99, combinational effect with AZT, mexB (PA) (mexB (PA) strain) | EC99, combinational effect with LVFX, mexB (PA) (mexB (PA) strain) | EC99, combinational effect with TC, mexB (PA) (mexB (PA) strain) | EC99, S-3769 strain, AMK (S-3769 strain) | EC99, S-3769 strain, GM (S-3769 strain) | EC99, mexB (PA), AZT (mexB (PA) strain) | EC99, mexB (PA), LVFX (mexB (PA) strain) | EC99, mexB (PA), TC (mexB (PA) strain)
1 | CSc1ccccc1CN1CCN(C(=O)[C@H](N)C2CCN(CCc3cc(Cl)ccc3-c3cccc(N)c3)CC2)CC1 [Example 600, Hydrochloride of (R)-2-amino-2-(1-(2-(3′-amino-4-chloro-[1,1-biphenyl]-2-yl)ethyl)piperidin-4-yl)-1-(4-(2-(methylthio)benzyl)piperazin-1-yl)ethan-1-one] | A (12.5 μM<EC99≤25 μM) | A (12.5 μM<EC99≤25 μM) | S (EC99≤12.5 μM) | S (EC99≤12.5 μM) | S (EC99≤12.5 μM) | – | – | – | – | –
2 | CCOc1cccc(F)c1CN1CCN(C(=O)[C@H](N)C2CCN(CCc3ccc(O)cc3-c3ccccc3)CC2)CC1 [Example 625, Hydrochloride of (R)-2-amino-1-(4-(2-ethoxy-6-fluorobenzyl)piperazin-1-yl)-2-(1-(2-(5-hydroxy-[1,1-biphenyl]-2-yl)ethyl)piperidin-4-yl)ethan-1-one] | A (12.5 μM<EC99≤25 μM) | A (12.5 μM<EC99≤25 μM) | C (100 μM<EC99) | C (100 μM<EC99) | C (100 μM<EC99) | – | – | – | – | –
3 | N[C@@H](C(=O)N1CCN(Cc2c(F)cccc2N2CCCC2)CC1)C1CCN(CCc2cc(Cl)ccc2-c2ccccc2)CC1 [Example 517, Hydrobromide of (R)-2-amino-2-(1-(2-(4-chloro-[1,1-biphenyl]-2-yl)ethyl)piperidin-4-yl)-1-(4-(2-fluoro-6-(pyrrolidin-1-yl)benzyl)piperazin-1-yl)ethan-1-one] | B (25 μM<EC99≤100 μM) | B (25 μM<EC99≤100 μM) | B (25 μM<EC99≤100 μM) | C (100 μM<EC99) | B (25 μM<EC99≤100 μM) | – | – | – | – | –
4 | CCOc1cccc(F)c1CN1CCN(C(=O)[C@H](N)C2CCN(CCc3cc(Cl)ccc3-c3cc(O)cc(F)c3)CC2)CC1 [Example 583, Hydrochloride of (R)-2-amino-2-(1-(2-(4-chloro-3′-fluoro-5′-hydroxy-[1,1-biphenyl]-2-yl)ethyl)piperidin-4-yl)-1-(4-(2-ethoxy-6-fluorobenzyl)piperazin-1-yl)ethan-1-one] | S (EC99≤12.5 μM) | S (EC99≤12.5 μM) | A (12.5 μM<EC99≤25 μM) | S (EC99≤12.5 μM) | A (12.5 μM<EC99≤25 μM) | – | – | – | – | –
5 | CCOc1cccc(F)c1CN1CCN(C(=O)[C@H](N)C2CCN(CCc3cc(Cl)ccc3-c3cccc4ccccc34)CC2)CC1 [Example 548, Hydrobromide of (R)-2-amino-2-(1-(5-chloro-2-(naphthalen-1-yl)phenethyl)piperidin-4-yl)-1-(4-(2-ethoxy-6-fluorobenzyl)piperazin-1-yl)ethan-1-one] | S (EC99≤12.5 μM) | A (12.5 μM<EC99≤25 μM) | A (12.5 μM<EC99≤25 μM) | S (EC99≤12.5 μM) | A (12.5 μM<EC99≤25 μM) | – | – | – | – | –
6 | CSc1ccccc1CN1CCN(C(=O)[C@H](N)C2CCN(CCc3cc(Cl)ccc3-c3cc(O)cc(Cl)c3)CC2)CC1 [Example 610, (R)-2-amino-2-(1-(2-(3′-4-dichloro-5′-hydroxy-[1,1′-biphenyl]-2-yl)ethyl)piperidin-4-yl)-1-(4-(2-(methylthio)benzyl)piperazin-1-yl)ethan-1-one] | S (EC99≤12.5 μM) | S (EC99≤12.5 μM) | S (EC99≤12.5 μM) | S (EC99≤12.5 μM) | S (EC99≤12.5 μM) | – | – | – | – | –
7 | CCOc1cccc(F)c1CN1CCN(C(=O)[C@H](N)C2CCN(CCc3cc(F)ccc3-c3ccccc3)CC2)CC1 [Example 50, Hydrobromide of (R)-2-amino-1-(4-(2-ethoxy-6-fluorobenzyl)piperazin-1-yl)-2-(1-(2-(4-fluoro-[1,1′-biphenyl]-2-yl)ethyl)piperidin-4-yl)ethan-1-one] | – | – | – | – | – | B (25 μM<EC99≤100 μM) | A (12.5 μM<EC99≤25 μM) | B (25 μM<EC99≤100 μM) | C (100 μM<EC99) | B (25 μM<EC99≤100 μM)
8 | CSc1cccc(Cl)c1CN1CCN(C(=O)[C@H](N)C2CCN(CCc3cc(Cl)ccc3-c3ccccc3)CC2)CC1 [Example 532, Hydrobromide of (R)-2-amino-1-(4-(2-chloro-6-(methylthio)benzyl)piperazin-1-yl)-2-(1-(2-(4-chloro-[1,1-biphenyl]-2-yl)ethyl)piperidin-4-yl)ethan-1-one] | B (25 μM<EC99≤100 μM) | B (25 μM<EC99≤100 μM) | B (25 μM<EC99≤100 μM) | B (25 μM<EC99≤100 μM) | B (25 μM<EC99≤100 μM) | – | – | – | – | –
9 | CCOc1cccc(F)c1CN1CCN(C(=O)[C@H](N)C2CCN(CCc3c[nH]c4ccccc34)CC2)CC1 [Example 148, hydrobromide of (R)-2-(1-(2-(1H-indol-3-yl)ethyl)piperidin-4-yl)-2-amino-1-(4-(2-ethoxy-6-fluorobenzyl)piperazin-1-yl)ethan-1-one] | – | – | – | – | – | S (EC99≤12.5 μM) | S (EC99≤12.5 μM) | C (100 μM<EC99) | C (100 μM<EC99) | B (25 μM<EC99≤100 μM)
10 | CCOc1cccc(F)c1CN1CCN(C(=O)[C@H](N)C2CCN(CCC3COc4ccccc4C3)CC2)CC1 (stereo partly drawn) [Example 153, Hydrobromide of (2R)-2-amino-2-(1-(2-(chroman-3-yl)ethyl)piperidin-4-yl)-1-(4-(2-ethoxy-6-fluorobenzyl)piperazin-1-yl)ethan-1-one] | – | – | – | – | – | S (EC99≤12.5 μM) | S (EC99≤12.5 μM) | C (100 μM<EC99) | C (100 μM<EC99) | C (100 μM<EC99)
11 | CCOc1cccc(F)c1CN1CCN(C(=O)[C@H](N)C2CCN(CCc3cc(Cl)ccc3-c3cnccc3Cl)CC2)CC1 [Example 91, Hydrobromide of (R)-2-amino-2-(1-(5-chloro-2-(4-chloropyridin-3-yl)phenethyl)piperidin-4-yl)-1-(4-(2-ethoxy-6-fluorobenzyl)piperazin-1-yl) ethan-1-one] | – | – | – | – | – | B (25 μM<EC99≤100 μM) | B (25 μM<EC99≤100 μM) | B (25 μM<EC99≤100 μM) | C (100 μM<EC99) | B (25 μM<EC99≤100 μM)
12 | N[C@@H](C(=O)N1CCN(Cc2cccc3c2OC(F)(F)O3)CC1)C1CCN(CCc2cc(Cl)ccc2-c2ccccc2)CC1 [Example 24, Hydrobromide of (R)-2-amino-2-(1-(2-(4-chloro-[1,1′-biphenyl]-2-yl)ethyl)piperidin-4-yl)-1-(4-((2,2-difluorobenzo[d][1,3]dioxol-4-yl)methyl)piperazin-1-yl)ethan-1-one] | – | – | – | – | – | B (25 μM<EC99≤100 μM) | B (25 μM<EC99≤100 μM) | B (25 μM<EC99≤100 μM) | B (25 μM<EC99≤100 μM) | A (12.5 μM<EC99≤25 μM)
13 | CCOc1cccc(F)c1CN1CCN(C(=O)[C@H](N)C2CCN(CCc3ccccc3OC)CC2)CC1 [Example 122, Hydrochloride of (R)-2-amino-1-(4-(2-ethoxy-6-fluorobenzyl)piperazin-1-yl)-2-(1-(2-methoxyphenethyl)piperidin-4-yl)ethan-1-one] | – | – | – | – | – | B (25 μM<EC99≤100 μM) | A (12.5 μM<EC99≤25 μM) | C (100 μM<EC99) | C (100 μM<EC99) | C (100 μM<EC99)
14 | CSc1cccc(O)c1CN1CCN(C(=O)[C@H](N)C2CCN(CCc3cc(Cl)ccc3-c3ccccc3)CC2)CC1 [Example 590, Hydrochloride of (R)-2-amino-2-(1-(2-(4-chloro-[1,1-biphenyl]-2-yl)ethyl)piperidin-4-yl)-1-(4-(2-hydroxy-6-(methylthio)benzyl)piperazin-1-yl) ethan-1-one] | A (12.5 μM<EC99≤25 μM) | A (12.5 μM<EC99≤25 μM) | S (EC99≤12.5 μM) | S (EC99≤12.5 μM) | S (EC99≤12.5 μM) | – | – | – | – | –
